From patent US8299285B2, “Compounds for imaging and therapy” (Isis Innovation Limited, priority 2005, dated 2012)
Values joined by “and” are separate entries in the source; they are usually repeats but may differ in a detail not shown here. Equal entries are not always repeated.

Experiments:
Assay type in all cases: physicochemical
[1] = UV/vis spectroscopy of complexes 1-13; conditions: for λmax (nm), (higher wavelength absorption peak, lowest energy transition) / λmax (nm): DMSO, 0.001 mmol concentration; for ε (mol^-1 dm^3 cm^-1): molar absorption coefficient of the higher wavelength absorption peak, Beer-Lambert law
Procedure: (§1) UV/Vis and fluorescence spectra were measured with a Perkin Elmer Lamda 19 spectrometer and a Hitachi F-4500 fluorescence spectrophotometer respectively.
(§2) The optical properties of a range of mono- and binuclear complexes derived from Zn[ATSM/A] (see the table below) were measured by electronic absorption (UV/vis) and fluorescence spectroscopy.
UV/vis spectroscopy: electronic absorption spectra were recorded in DMSO at 0.1, 0.01 and 0.001 mmol concentrations. Values of λmax were obtained from spectra of solutions at 0.001 mmol concentration, as this is sufficiently dilute to enable intermolecular interactions to be neglected.

[2] = Fluorescence of Zn[ATS(Me)/A-T-Amino-BTAP] and its precursors; conditions: 475 nm, DMSO, 0.01 mM
Procedure: as §1
The fluorescence emission spectrum of Zn[ATS(Me)/A-T-Amino-BTAP] can be examined as two regions 400-500 nm, predominantly benzothiazole fluorescence and 490-790 nm, predominantly the zinc (BTSC) fluorescence.
FIGS. 3 and 4 show the fluorescence emission spectra (a) for Amino-BTAP, 4-Aldehydrophenylimino-BTAP and Zn[ATS(Me)/A-T-Amino-BTAP], (375 nm, D MSO, 0.01 mM); and (b) for Zn[ATS(Me)/A-T-Amino-BTAP], Zn[ATS(Me)/A] and Zn[ATS(Me)/A-T], (475 nm. DMSO, 0.01 mM).

[3] = Fluorescence spectroscopy of complexes 1-13; conditions: for fluorescence strength: 0.01 mmol concentrations in DMSO; for fluorescence emission λmax /nm / Relative intensity / Relative intensity (values in parentheses): excited at 475 nm; for fluorescence emission λmax /nm / Relative intensity: 0.01 mmol solutions in DMSO; for Relative intensity / Relative intensity (values in parentheses): relative to complex 3; for Relative intensity (values in parentheses): 0.1 mmol solutions; for increase in fluorescence intensity relative to Zn[ATSM] and Zn[ATSM/A]: fluorescence emission
Procedure: as §1, §2
Fluorescence spectroscopy: the fluorescence of complexes 1-13 was measured at 0.1, 0.01 and 0.001 mmol concentrations by exciting at a range of wavelengths from 300 nm to 500 n. At 0.1 mmol and 0.01 mmol concentrations all of the complexes show emissions between 534 nm and 604 nm. […] Values of λmax and the intensity of the fluorescence emission relative to that of complex 3 when excited at 475 nm for complexes 1-13 are give in the following table.
All values relate to 0.01 mmol solutions in DMSO. (a) The values in parentheses refer to 0.1 mmol solutions.

[4] = UV/Vis absorption of Zn[BTSCs]; conditions: for UV/Vis Absorption λmax(2): second UV/vis absorption; for UV/Vis Absorption λmax(3): third UV/vis absorption
Procedure: as §1
The co-ordination of BTSCs to zinc produces an extended delocalised system. Zn[ATSM] was the first of these complexes observed to be fluorescent (Emission: λmax=557 nm) and with UV/Vis absorptions at 308 and 429 nm, in line with the predictions of DFT calculations. A third absorption predicted by DFT at below 300 nm was not observed due to limitations of the spectrometer.
(§3) The following table gives the position of λmax for the fluorescence emission spectra and the second and third UV/vis Absorptions for a range of Zn[BTSCs]

[5] = Fluorescence emission spectra of zinc bis(thiosemicarbazone) complexes (Zn[BTSCs]); conditions: for fluorescence peak associated with the phenyl ring: FIG. 2; for Fluorescence Emission λmax(1): peak (1), associated with the phenyl component; for Fluorescence Emission λmax(2): peak (2), associated with the BTSC backbone
Procedure: as §1
In addition to the fluorescence band around 550 nm the Zn[ATS(R)/P-carb] complexes show a second band with at λma 340 nm. This may be associated with the fluorescence of the terminal benzoic acid group.
Fluorescence emission of Zn[ATS(R)/P-Cart] for excitation with DMSO at 300 nm.
To further investigate the effect of addition of a phenyl group onto zinc [BTSC], complexes differing only by the presence of a phenyl group were compared; see FIG. 2.
The Zn[GT(Et)] peak at 335 nm, is a Raman scattering peak. The Zn[PGTS(Et)] peak at 342 nm and the Zn[GTS(Ph)] peak at 397 nm are due to fluorescence associated with the phenyl ring. These peaks are readily differentiated; true fluorescence emission peaks (λmax,) remain static over a range of excitation wavelengths whereas Raman peaks (λmax) vary, as described by Wayne, R. P., in Principles and Applications of Photochemistry, 1986.
as §3
Fluorescence peak (1) between 340 and 400 nm, associated with the phenyl component and a second, fluorescence peak (2), present in all complexes between 530 and 570 nm, associated with the BTSC backbone. The intensity of fluorescence peak (1) was always less than that of fluorescence peak (2). Fluorescence peak (2) for the all the phenyl complexes appear at longer wavelengths as these have longer delocalised π systems than their alkyl substituted counterparts.

[6] = wavelengths greater than 300 nm

Compound	λmax (nm), (higher wavelength absorption peak, lowest energy transition) [1]	λmax (nm) [1, 6]	ε (mol^-1 dm^3 cm^-1) [1]	fluorescence emission λmax /nm [3]	Relative intensity [3]	also measured
CNC1=NN=C(C)C(C)=NN=C(NN)[S][Zn][S]1 [Complex 2, Zn[ATSM/A]]	429 nm	315 nm	29690 mol^-1 dm^3 cm^-1	548 nm	0.10	fluorescence intensity in the zinc complex region, versus Zn[ATS(Me)/A-T-Amino-BTAP] [2]: approximately tenfold lower; rank of fluorescence emission curve intensity, FIG. 4 (b) [2]: second highest intensity; fluorescence strength [3]: comparatively weak fluorescence; Relative intensity (values in parentheses) [3]: 0.32
CNC1=NN=C(C)C(C)=NN=C(N/N=C/c2ccccc2)[S][Zn][S]1 [Complex 3, Zn[ATSM/A-benzaldehyde]]	451 nm	333 nm	40016 mol^-1 dm^3 cm^-1	553 nm	1.00	–
CNC1=NN=C(C)C(C)=NN=C(N/N=C/c2ccco2)[S][Zn][S]1 [Complex 4, Zn[ATSM/A-2-furaldehyde]]	455 nm	340 nm	36939 mol^-1 dm^3 cm^-1	551 nm	1.05	–
CNC1=NN=C(C)C(C)=NN=C(N/N=C/c2ccccc2O)[S][Zn][S]1 [Complex 5, Zn[ATSM/A-salicylaldehyde]]	455 nm	346 nm	51172 mol^-1 dm^3 cm^-1	548 nm	0.95	–
CNC1=NN=C(C)C(C)=NN=C(N/N=C/c2c(O)ccc3ccccc23)[S][Zn][S]1 [Complex 6, Zn[ATSM/A-2-hydroxynaphthaldehyde]]	460 nm	334 nm	62183 mol^-1 dm^3 cm^-1	558 nm	2.61	λmax (nm) [1]: 379 nm
CCCN(CCC)c1ccc(/C=N/NC2=NN=C(C)C(C)=NN=C(NC)[S][Zn][S]2)cc1 [Complex 7, Zn[ATSM/A-4-(di-n-propylamino)benzaldehyde]]	465 nm	321 nm	75127 mol^-1 dm^3 cm^-1	578 nm	2.85	λmax (nm) [1]: 370 nm
CNC1=NN=C(C)C(C)=NN=C(N/N=C(\C)C(C)=O)[S][Zn][S]1 [Complex 8, Zn[ATSM/A-butane-2,3-dione]]	455 nm	323 nm	35594 mol^-1 dm^3 cm^-1	561 nm	0.33	–
CNC1=NN=C(C)C(C)=NN=C(N/N=C/C(=O)c2ccccc2)[S][Zn][S]1 [Complex 9, Zn[ATSM/A-phenylglyoxal]]	474 nm	341 nm	46157 mol^-1 dm^3 cm^-1	605 nm	0.19	–
CNC1=NN=C(C)C(C)=NN=C(N/N=C/c2ccc(C=O)cc2)[S][Zn][S]1 [Complex 10, Zn[ATSM/A-terephthalaldehyde]]	468 nm	–	49912 mol^-1 dm^3 cm^-1	584 nm	0.23	λmax (nm) [1]: 364 nm; fluorescence intensity in the zinc complex region, versus Zn[ATS(Me)/A-T-Amino-BTAP] [2]: approximately tenfold lower; rank of fluorescence emission curve intensity, FIG. 4 (b) [2]: lowest intensity
CNC1=NN=C(C)C(C)=NN=C(N/N=C/C=N/NC2=NN=C(C)C(C)=NN=C(NC)[S][Zn][S]2)[S][Zn][S]1 [Complex 11, Zn2[ATSM/A-glyoxal-ATSM/A]]	489 nm	330 nm	126450 mol^-1 dm^3 cm^-1	558 nm	2.46	increase in fluorescence intensity relative to Zn[ATSM] and Zn[ATSM/A] [3]: almost thirty-fold increase
CNC1=NN=C(C)C(C)=NN=C(N/N=C/c2cccc(/C=N/NC3=NN=C(C)C(C)=NN=C(NC)[S][Zn][S]3)c2)[S][Zn][S]1 [Complex 13, Zn2[ATSM/A-isopthalaldehyde-ZnATSM/A]]	457 nm	339 nm	79475 mol^-1 dm^3 cm^-1	567 nm	2.65	increase in fluorescence intensity relative to Zn[ATSM] and Zn[ATSM/A] [3]: almost thirty-fold increase
CCNC1=N[N+]2=CC(c3ccccc3)=[N+]3N=C(NCC)[S][Zn-2]23[S]1 (stereo not drawn) [Zn PGTS(Et), Zn [PGTS(Et)]]	–	–	–	–	–	UV/Vis Absorption λmax(2) [4]: 331 nm; UV/Vis Absorption λmax(3) [4]: 466 nm; fluorescence peak associated with the phenyl ring [5]: 342 nm; Fluorescence Emission λmax(1) [5]: 391 nm; Fluorescence Emission λmax(2) [5]: 567 nm
CCNC1=N[N+]2=CC=[N+]3N=C(NCC)[S][Zn-2]23[S]1 [Zn[GTS(Et)]]	–	–	–	–	–	UV/Vis Absorption λmax(2) [4]: 323 nm; UV/Vis Absorption λmax(3) [4]: 445 nm; Fluorescence Emission λmax(2) [5]: 550 nm
CNC([S-])=NN=CC=NN=C([S-])NC.[Zn+2] [Zn[GTS(Me)]]	–	–	–	–	–	UV/Vis Absorption λmax(2) [4]: 334 nm; UV/Vis Absorption λmax(3) [4]: 446 nm; Fluorescence Emission λmax(2) [5]: 550 nm
C1=[N+]2N=C(Nc3ccccc3)[S][Zn-2]23[S]C(Nc2ccccc2)=N[N+]3=C1 [Zn[GTS(Ph)]]	–	–	–	–	–	UV/Vis Absorption λmax(2) [4]: 342 nm; UV/Vis Absorption λmax(3) [4]: 469 nm; fluorescence peak associated with the phenyl ring [5]: 397 nm; Fluorescence Emission λmax(1) [5]: 340 nm; Fluorescence Emission λmax(2) [5]: 575 nm
Zn[ATSM] [Complex 1, reference compound]	429 nm	308 nm	29444 mol^-1 dm^3 cm^-1	534 nm	0.09	UV/Vis absorptions [4]: 308 nm and 429 nm; fluorescence strength [3]: comparatively weak fluorescence; Relative intensity (values in parentheses) [3]: 0.35; Emission λmax [5]: 557 nm
